# Experimental data as given in patent publication US20140196172A1, “Organelle Targeting Nanocarriers” (Her Majesty the Queen in Right of Canada, as Repre sented …, priority 2011, published 2014).
# How the values were obtained:
# [1] = system: Caco-2 cells; assay: Caco-2 cell transformation with gfp reporter, photometric cell imaging; assay type: cell-based, human; conditions: for Fluorescence observed in cells upon transfection / Expression of GFP in mitochondria: Caco-2, mitochondrial gfp-reporter construct; for Expression of GFP in mitochondria: photometric cell imaging; for gfp expression, Photometric Cell Imaging (average counts/sec) Caco-2: pWMaadA16GFP 5 μg + peptide 500 μg, measured at 40 h
# Protocol: (§1) Uptake of labeled peptides by cells is quantified using a photometric detector/cell-imaging system (PTI). An excitation scan is run to determine if uptake has occurred as indicated by peaks at the appropriate wavelengths and if the amount changes in a dose-dependent manner compared to unlabeled cells. A time-based scan is then performed at the optimal excitation and emission wavelength to quantify total uptake, using about 20 cells/view/replicate.
# (§2) The ten non-labelled oTPs listed in Tables 3 and 4 were tested for their capability to deliver biologically active DNA to chloroplasts or mitochondria using an oTP-GFP reporter construct transfection assay. oTPs are mixed with a double stranded (ds) DNA construct encoding Aequorea victoria green fluorescent protein (GFP) to form a complex. The plasmid-peptide nanocomplexes formed are incubated with triticale mesophyll protoplasts, microspores, or MDCK, Caco-2, F1112 or MG cells. Detection of a fluorescent signal by confocal microscopy and/or photometric cell imaging would indicate that the dsDNA had been transported into organelles and that transient expression of GFP had occurred. In addition, gene expression can be measured using quantitative real-time PCR to determine gfp mRNA abundance.
# (§3) Wheat mitochondrial aadA16GFP reporter plasmid (pWMaadA16GFP, FIG. 11) is a 4587 base pair wheat specific mitochondrial transformation vector, which targets insertions into the fourth repeat region between the trnfM and rm18 gene cluster which is repeated three times in the Triticum aestivum mitochondrial genome. The insertion site is in the Triticum aestivum mitochondrial genome at nucleotides 300805-300878 and 300880-302834 (GenBank accession No. AP008982.1). A multiple cloning site is introduced following the tmfM target insertion sequence. The selection marker gene is an organelle codon specific aad-gfp fusion gene, which facilitates a dual selection method of spectinomycin resistance through an aadA derivative and visual detection by GFP fluorescence (GenBank accession No. ABX39486; Khan and Maliga, Nat. Biotechnol. (1999 September) 17(9): 910-5). The selection marker gene is driven by the Triticum aestivum mitochondrial atpA gene promoter (GenBank accession No. X54387.1). The aad-gfp fusion gene is terminated with the TpsbA terminator sequence derived from the Triticum aestivum mitochondrial genome at nucleotides 62871-62565 (GenBank accession No. AP008982.1).
# (§4) The dsDNA construct (pWMaadA16GFP. 100 μl of the stock solution, 5 μg) is combined with mTP1 (SEQ ID NO: 1) or mTP4 (SEQ ID NO: 4) (100 μl of the unlabelled stock, 500 μg) and incubated for 15 minutes at 37° C. An 800 μl aliquot of DMEM is added to the mixture and 100 μl of this mixture is then added to each cell monolayer (prepared as described in Example 2) that has 500 μl complete media. The cells are incubated at 37° C. in a humidified atmosphere containing 5% CO2 for 24 h to 72 hr. The uptake and expression of the GFP reporter is measured at 40 h using a photometric detector/cell-imaging system (PTI) as described in Example 2. The cells are also imaged using confocal microscopy as described in Example 2 using MitoTracker® Orange staining to visualize mitochondria.
# [2] = system: MG cells; assay: MG cell transformation with gfp reporter, photometric cell imaging; assay type: cell-based, bovine; conditions: for Fluorescence observed in cells upon transfection / Expression of GFP in mitochondria: MG, mitochondrial gfp-reporter construct; for Expression of GFP in mitochondria: photometric cell imaging; for gfp expression, Photometric Cell Imaging (average counts/sec) MG: pWMaadA16GFP 5 μg + peptide 500 μg, measured at 40 h
# Protocol: as §1, §2, §3, §4
# [3] = system: mitochondria of triticale mesophyll protoplasts; assay: Protoplast transformation with gfp reporter, confocal microscopy; assay type: cell-based; conditions: pWMaadA16GFP plasmid, 24 h
# Protocol: as §2
# Wheat mitochondrial aadA16GFP reporter plasmid (pWMaadA16GFP, FIG. 11) is a 4587 base pair wheat specific mitochondrial transformation vector, which targets insertions into the fourth repeat region between the trnfM and rm18 gene cluster which is repeated three times in the Triticum aestivum mitochondrial genome. The insertion site is in the Triticum aestivum mitochondrial genome at nucleotides 300805-300878 and 300880-302834 (GenBank accession No. AP008982.1). A multiple cloning site is introduced following the tmfM target insertion sequence. […]
# [4] = system: F1112 cells; assay: F1112 cell transformation with gfp reporter, photometric cell imaging; assay type: cell-based, bovine; conditions: for Fluorescence observed in cells upon transfection / Expression of GFP in mitochondria: F1112, mitochondrial gfp-reporter construct; for Expression of GFP in mitochondria: photometric cell imaging; for gfp expression, Photometric Cell Imaging (average counts/sec) F1112: pWMaadA16GFP 5 μg + peptide 500 μg, measured at 40 h
# Protocol: as §1, §2, §3, §4
Sequence,Fluorescence observed in cells upon transfection [1],Expression of GFP in mitochondria [1],"gfp expression, Photometric Cell Imaging (average counts/sec) Caco-2 [1]",Fluorescence observed in cells upon transfection [2],Expression of GFP in mitochondria [2],"gfp expression, Photometric Cell Imaging (average counts/sec) MG [2]",Transfection of mitochondria (GFP fluorescence) [3],Fluorescence observed in cells upon transfection [4],Expression of GFP in mitochondria [4],"gfp expression, Photometric Cell Imaging (average counts/sec) F1112 [4]"
MWWRRSRTNSLRYT (listed as Arabidopsis thaliana) [mTP4],no fluorescence was observed,detected,570000 counts/sec,no fluorescence was observed,detected,650000 counts/sec,can mediate the transfection of mitochondria,no fluorescence was observed,detected,650000 counts/sec
MAAWMRSLFSPLKKLWIRMH (Zea mays) [mTP2],–,–,–,–,–,–,can mediate the transfection of mitochondria,–,–,–
MFSYLPRYPLRAASARALVRATRPSYRSALLRYQ (listed as Triticum aestivum) [mTP1],fluorescence was observed in all cells,detected,2000000 counts/sec,fluorescence was observed in all cells,detected,1900000 counts/sec,–,fluorescence was observed in all cells,detected,1900000 counts/sec
